Laboratory results published in publication PMC8249783, “A novel multikinase inhibitor SKLB‐YTH‐60 ameliorates inflammation and fibrosis in bleomycin‐induced lung fibrosis mouse models” (Cell Proliferation, 2021).
“And” between values parts separate entries of the source, which are not always exact repeats. Identical values can stand only once. Like-named read-outs stand apart in the source and are kept apart here.

Legend:
PDGFRβ (h) = PDGFRβ (h) (Homo sapiens, UniProt P09619); experiment: Kinase profile assay and IC50 test (Eurofins); format: biochemical
PDGFRβ (h), sequence (P09619 33-1106): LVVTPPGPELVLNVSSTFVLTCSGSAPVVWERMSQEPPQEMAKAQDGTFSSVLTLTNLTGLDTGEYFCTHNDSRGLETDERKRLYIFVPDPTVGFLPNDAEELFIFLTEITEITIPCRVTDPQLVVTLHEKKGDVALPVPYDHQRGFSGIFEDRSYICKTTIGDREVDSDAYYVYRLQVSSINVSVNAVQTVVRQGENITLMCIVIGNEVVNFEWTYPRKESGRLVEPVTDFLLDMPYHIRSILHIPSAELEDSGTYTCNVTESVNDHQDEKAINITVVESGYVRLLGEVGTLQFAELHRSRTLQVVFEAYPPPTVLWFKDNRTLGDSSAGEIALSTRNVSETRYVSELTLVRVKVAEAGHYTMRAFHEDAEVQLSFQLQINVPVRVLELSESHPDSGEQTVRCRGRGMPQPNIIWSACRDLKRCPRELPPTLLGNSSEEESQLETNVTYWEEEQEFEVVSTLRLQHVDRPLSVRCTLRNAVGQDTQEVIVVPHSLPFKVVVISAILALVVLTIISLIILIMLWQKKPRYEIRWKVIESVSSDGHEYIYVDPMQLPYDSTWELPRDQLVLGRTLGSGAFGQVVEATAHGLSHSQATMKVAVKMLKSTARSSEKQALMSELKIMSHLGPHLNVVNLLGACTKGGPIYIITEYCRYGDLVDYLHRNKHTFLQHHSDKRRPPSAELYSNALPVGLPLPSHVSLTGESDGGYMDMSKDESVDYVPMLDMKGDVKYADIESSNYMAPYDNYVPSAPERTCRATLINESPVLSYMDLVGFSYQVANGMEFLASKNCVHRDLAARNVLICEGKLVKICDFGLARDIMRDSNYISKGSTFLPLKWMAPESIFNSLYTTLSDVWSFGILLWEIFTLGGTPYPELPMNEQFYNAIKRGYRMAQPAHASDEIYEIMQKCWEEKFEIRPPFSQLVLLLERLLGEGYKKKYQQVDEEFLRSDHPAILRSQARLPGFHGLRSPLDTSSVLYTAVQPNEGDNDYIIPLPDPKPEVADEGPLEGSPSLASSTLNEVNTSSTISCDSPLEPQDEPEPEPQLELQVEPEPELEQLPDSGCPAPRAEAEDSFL
Experimental: (§1) The in vitro kinase enzymatic inhibition assays were carried out by the Kinase Profiling Services provided by Eurofins (UK). The detailed protocol descriptions can be provided by the website (https://www.eurofinsdiscoveryservices.com).

Abl (h) = Abl (h) (Homo sapiens, UniProt P00519); experiment: Kinase profile assay and IC50 test (Eurofins); format: biochemical; conditions: double testing
Abl (h), sequence (P00519 whole entry): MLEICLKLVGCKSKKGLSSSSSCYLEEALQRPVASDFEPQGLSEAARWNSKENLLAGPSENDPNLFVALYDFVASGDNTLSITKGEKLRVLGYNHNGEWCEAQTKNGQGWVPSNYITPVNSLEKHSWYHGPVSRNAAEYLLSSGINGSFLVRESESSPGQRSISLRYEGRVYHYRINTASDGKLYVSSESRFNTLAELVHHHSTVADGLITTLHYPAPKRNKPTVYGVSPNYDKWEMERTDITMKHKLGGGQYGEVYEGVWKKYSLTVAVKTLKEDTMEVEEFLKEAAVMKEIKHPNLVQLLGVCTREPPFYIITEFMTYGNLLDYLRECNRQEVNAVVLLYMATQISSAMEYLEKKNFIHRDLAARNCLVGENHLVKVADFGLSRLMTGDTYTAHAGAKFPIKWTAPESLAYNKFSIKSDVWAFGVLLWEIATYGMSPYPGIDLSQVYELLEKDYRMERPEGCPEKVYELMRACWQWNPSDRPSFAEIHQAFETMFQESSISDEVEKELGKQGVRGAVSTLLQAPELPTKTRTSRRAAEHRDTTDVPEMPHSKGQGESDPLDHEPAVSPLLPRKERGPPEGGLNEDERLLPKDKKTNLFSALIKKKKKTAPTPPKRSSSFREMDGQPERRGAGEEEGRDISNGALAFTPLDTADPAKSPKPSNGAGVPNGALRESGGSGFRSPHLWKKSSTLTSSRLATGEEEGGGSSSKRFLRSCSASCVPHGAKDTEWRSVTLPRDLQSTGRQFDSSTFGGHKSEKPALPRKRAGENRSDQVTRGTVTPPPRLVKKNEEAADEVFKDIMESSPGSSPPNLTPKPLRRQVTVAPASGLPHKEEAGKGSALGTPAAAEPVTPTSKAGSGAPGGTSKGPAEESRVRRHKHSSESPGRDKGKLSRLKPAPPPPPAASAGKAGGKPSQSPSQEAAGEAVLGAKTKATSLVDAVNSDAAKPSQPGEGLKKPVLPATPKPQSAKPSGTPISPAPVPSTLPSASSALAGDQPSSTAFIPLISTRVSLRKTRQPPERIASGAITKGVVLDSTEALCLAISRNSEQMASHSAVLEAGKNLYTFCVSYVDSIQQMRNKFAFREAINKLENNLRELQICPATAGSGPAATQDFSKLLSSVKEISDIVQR
Experimental: as §1

Flt1 (h)/VEGFR1 = Flt1 (h)/VEGFR1 (Homo sapiens, UniProt P17948); experiment: Kinase profile assay and IC50 test (Eurofins); format: biochemical; conditions: double testing
Experimental: as §1

Flt3 (h) = Flt3 (h) (Homo sapiens, UniProt P36888); experiment: Kinase profile assay and IC50 test (Eurofins); format: biochemical; conditions: double testing
Experimental: as §1

PDGFRα (h) = PDGFRα (h) (Homo sapiens, UniProt P16234); experiment: Kinase profile assay and IC50 test (Eurofins); format: biochemical
PDGFRα (h), sequence (P16234 24-1089): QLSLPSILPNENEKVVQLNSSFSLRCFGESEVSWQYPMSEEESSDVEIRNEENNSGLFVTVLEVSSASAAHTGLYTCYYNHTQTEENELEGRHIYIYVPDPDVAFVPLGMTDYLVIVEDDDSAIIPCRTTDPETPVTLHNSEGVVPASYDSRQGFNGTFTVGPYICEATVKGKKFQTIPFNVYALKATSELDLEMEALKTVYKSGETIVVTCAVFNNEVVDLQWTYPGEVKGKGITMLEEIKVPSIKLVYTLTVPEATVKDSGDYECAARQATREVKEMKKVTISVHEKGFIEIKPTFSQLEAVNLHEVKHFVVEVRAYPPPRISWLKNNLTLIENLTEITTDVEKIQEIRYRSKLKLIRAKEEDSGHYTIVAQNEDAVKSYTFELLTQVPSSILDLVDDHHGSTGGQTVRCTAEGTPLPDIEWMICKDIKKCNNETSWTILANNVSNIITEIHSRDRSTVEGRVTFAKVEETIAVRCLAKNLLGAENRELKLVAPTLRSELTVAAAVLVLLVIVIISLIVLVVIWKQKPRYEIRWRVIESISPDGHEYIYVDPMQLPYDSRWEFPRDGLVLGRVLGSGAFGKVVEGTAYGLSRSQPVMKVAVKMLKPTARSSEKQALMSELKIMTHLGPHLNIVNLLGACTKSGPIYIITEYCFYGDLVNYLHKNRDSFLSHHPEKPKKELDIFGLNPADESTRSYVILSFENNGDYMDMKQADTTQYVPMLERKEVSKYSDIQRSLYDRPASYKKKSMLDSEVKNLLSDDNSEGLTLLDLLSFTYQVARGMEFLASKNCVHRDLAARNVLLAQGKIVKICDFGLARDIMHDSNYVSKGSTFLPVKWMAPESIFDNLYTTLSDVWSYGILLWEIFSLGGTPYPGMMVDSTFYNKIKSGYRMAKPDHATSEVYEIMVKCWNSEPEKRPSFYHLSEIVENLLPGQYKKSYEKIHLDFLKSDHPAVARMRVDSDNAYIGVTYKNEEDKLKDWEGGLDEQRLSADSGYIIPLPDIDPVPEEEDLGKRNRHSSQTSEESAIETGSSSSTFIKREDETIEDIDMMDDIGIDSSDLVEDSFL
Experimental: as §1

Flt4 (h)/VEGFR3 = Flt4 (h)/VEGFR3 (Homo sapiens, UniProt P35916); experiment: Kinase profile assay and IC50 test (Eurofins); format: biochemical; conditions: double testing
Experimental: as §1

FGFR2 (h) = FGFR2 (h) (Homo sapiens, UniProt P21802); experiment: Kinase profile assay and IC50 test (Eurofins); format: biochemical; conditions: double testing
Experimental: as §1

FGFR4 (h) = FGFR4 (h) (Homo sapiens, UniProt P22455); experiment: Kinase profile assay and IC50 test (Eurofins); format: biochemical; conditions: double testing
Experimental: as §1

FGFR3 (h) = FGFR3 (h) (Homo sapiens, UniProt P22607); experiment: Kinase profile assay and IC50 test (Eurofins); format: biochemical; conditions: double testing
Experimental: as §1

KDR (h)/VEGFR2 = KDR (h)/VEGFR2 (Homo sapiens, UniProt P35968); experiment: Kinase profile assay and IC50 test (Eurofins); format: biochemical; conditions: double testing
KDR (h)/VEGFR2, sequence (P35968 20-1356): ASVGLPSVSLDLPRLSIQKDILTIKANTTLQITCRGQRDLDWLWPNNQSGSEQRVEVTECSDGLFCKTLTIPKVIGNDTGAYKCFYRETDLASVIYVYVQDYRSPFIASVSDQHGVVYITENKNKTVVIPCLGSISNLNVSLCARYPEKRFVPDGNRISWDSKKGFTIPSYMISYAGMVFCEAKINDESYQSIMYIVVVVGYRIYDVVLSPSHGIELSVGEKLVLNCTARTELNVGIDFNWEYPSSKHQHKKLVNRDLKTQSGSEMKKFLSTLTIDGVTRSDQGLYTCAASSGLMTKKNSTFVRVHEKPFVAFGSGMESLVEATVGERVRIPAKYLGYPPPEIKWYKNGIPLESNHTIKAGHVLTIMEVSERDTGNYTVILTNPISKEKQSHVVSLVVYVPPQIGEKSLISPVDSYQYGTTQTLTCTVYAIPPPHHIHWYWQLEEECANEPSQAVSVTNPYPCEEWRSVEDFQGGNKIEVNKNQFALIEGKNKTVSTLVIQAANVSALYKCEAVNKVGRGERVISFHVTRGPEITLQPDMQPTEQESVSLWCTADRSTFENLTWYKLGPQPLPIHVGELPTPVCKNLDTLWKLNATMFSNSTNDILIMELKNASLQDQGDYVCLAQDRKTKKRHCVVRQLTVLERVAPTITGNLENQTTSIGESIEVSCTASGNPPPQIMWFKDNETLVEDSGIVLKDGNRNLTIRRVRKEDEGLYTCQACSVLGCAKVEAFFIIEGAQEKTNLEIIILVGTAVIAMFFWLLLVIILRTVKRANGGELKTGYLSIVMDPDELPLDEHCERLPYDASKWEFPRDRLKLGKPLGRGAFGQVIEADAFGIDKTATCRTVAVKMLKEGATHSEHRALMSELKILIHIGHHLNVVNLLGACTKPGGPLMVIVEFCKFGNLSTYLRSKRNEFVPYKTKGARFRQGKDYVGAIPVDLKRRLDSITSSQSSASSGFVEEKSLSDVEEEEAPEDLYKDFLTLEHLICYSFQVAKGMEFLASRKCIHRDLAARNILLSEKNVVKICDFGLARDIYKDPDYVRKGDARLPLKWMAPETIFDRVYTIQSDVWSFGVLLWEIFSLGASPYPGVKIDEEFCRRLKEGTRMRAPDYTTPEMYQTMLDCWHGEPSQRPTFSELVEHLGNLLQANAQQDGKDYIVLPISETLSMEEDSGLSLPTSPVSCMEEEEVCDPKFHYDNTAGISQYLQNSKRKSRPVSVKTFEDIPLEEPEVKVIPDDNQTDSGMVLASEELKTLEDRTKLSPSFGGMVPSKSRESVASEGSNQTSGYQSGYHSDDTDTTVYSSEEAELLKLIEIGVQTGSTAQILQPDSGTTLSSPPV
Experimental: as §1

[1] = Pharmacokinetics study after IV and PO administration to SD rats; format: in vivo; conditions: for AUC / MRT: SD rats, i.v. 2 mg·kg^−1
Experimental: The appropriate amount of YTH‐60 was accurately weighed, added to the final volume of 5% DMSO, 40% PEG400 and 55% normal saline, and vortexed or ultrasonicated to fully mix. Then, 0.4 and 2 mg·mL^−1 of clarified dosing solution was used for intravenous administration and oral gavage administration. SD rats were transferred from the Experimental Animal Library (999 M‐017), Shanghai Xipuer‐Beikai Experimental Animal Co. Ltd. After oral, intravenous or intragastric administration, blood was collected by jugular vein or other suitable methods. Approximately 0.20 mL of each sample was collected, in the presence of heparin sodium as an anticoagulant. After the blood samples were collected, they were placed on ice and centrifuged to separate plasma within 2 hours (centrifugation conditions: centrifugal force 6800 g, 6 minutes, 2‐8°C). The collected plasma samples were stored at −80°C before analysis by LC‐MS/MS‐18. After analysis, the remaining plasma samples were stored at −80°C for a period of 1 month.

## COc1cc(OC)c(Cl)c(-c2ccc3c(/C=C/c4ccc(N(C)C(=O)CN5CCN(C)CC5)cc4)n[nH]c3c2)c1Cl [YTH‐60, (E)‐N‐(4‐(2‐(6‐(2,6‐dichloro‐3,5‐dimethoxyphenyl)‐1H‐indazol‐3‐yl)vinyl)phenyl)‐N‐methyl‐2‐(4‐methylpiperazin‐1‐yl)acetamide]
PDGFRβ (h)
  kinase inhibition (in words): relatively weak kinase inhibition
PDGFRβ (h); double testing
  IC50: > 3000 nM
Abl (h)
  IC50: 27 nM
Flt1 (h)/VEGFR1
  IC50: 123 nM
Flt3 (h)
  IC50: 297 nM
PDGFRα (h)
  kinase inhibition (in words): relatively weak kinase inhibition
PDGFRα (h); double testing
  IC50: 921 nM
Flt4 (h)/VEGFR3
  IC50: 64 nM
FGFR2 (h)
  IC50: 7 nM
FGFR4 (h)
  IC50: 424 nM
FGFR3 (h)
  IC50: 9 nM
KDR (h)/VEGFR2
  IC50: 61 nM
[1]; IV 2 mg/kg, 0.083 h, individual animals 101, 102, 103, 2 mg/kg
  Individual plasma concentration: 423.84 ng/mL and 362.43 ng/mL
[1]; IV 2 mg/kg, 0.25 h, individual animals 101, 102, 103, 2 mg/kg
  Individual plasma concentration: 168.72 ng/mL and 204.54 ng/mL
[1]; IV 2 mg/kg, 0.5 h, individual animals 101, 102, 103, 2 mg/kg
  Individual plasma concentration: 128.91 ng/mL and 163.29 ng/mL
[1]; IV 2 mg/kg, 1 h, individual animals 101, 102, 103, 2 mg/kg
  Individual plasma concentration: 107.71 ng/mL and 131.39 ng/mL
[1]; IV 2 mg/kg, 2 h, individual animals 101, 102, 103, 2 mg/kg
  Individual plasma concentration: 69.27 ng/mL and 80.59 ng/mL
[1]; IV 2 mg/kg, 4 h, individual animals 101, 102, 103, 2 mg/kg
  Individual plasma concentration: 42.78 ng/mL and 48.71 ng/mL
[1]; IV 2 mg/kg, 6 h, individual animals 101, 102, 103, 2 mg/kg
  Individual plasma concentration: 34.45 ng/mL and 41.43 ng/mL
[1]; IV 2 mg/kg, 8 h, individual animals 101, 102, 103, 2 mg/kg
  Individual plasma concentration: 22.38 ng/mL and 32.19 ng/mL
[1]; IV 2 mg/kg, 24 h, individual animals 101, 102, 103, 2 mg/kg
  Individual plasma concentration: 2.68 ng/mL and 3.51 ng/mL
[1]; PO 20 mg/kg, 0.25 h, individual animals 201, 202, 203, 20 mg/kg
  Individual plasma concentration: 38.10 ng/mL and 22.94 ng/mL
[1]; PO 20 mg/kg, 0.5 h, individual animals 201, 202, 203, 20 mg/kg
  Individual plasma concentration: 25.31 ng/mL and 35.39 ng/mL
[1]; PO 20 mg/kg, 1 h, individual animals 201, 202, 203, 20 mg/kg
  Individual plasma concentration: 34.05 ng/mL and 26.26 ng/mL
[1]; PO 20 mg/kg, 2 h, individual animals 201, 202, 203, 20 mg/kg
  Individual plasma concentration: 87.47 ng/mL and 35.35 ng/mL and 57.08 ng/mL
[1]; PO 20 mg/kg, 4 h, individual animals 201, 202, 203, 20 mg/kg
  Individual plasma concentration: 83.13 ng/mL and 87.88 ng/mL
[1]; PO 20 mg/kg, 6 h, individual animals 201, 202, 203, 20 mg/kg
  Individual plasma concentration: 85.16 ng/mL and 114.92 ng/mL
[1]; PO 20 mg/kg, 8 h, individual animals 201, 202, 203, 20 mg/kg
  Individual plasma concentration: 79.77 ng/mL and 97.21 ng/mL
[1]; PO 20 mg/kg, 24 h, individual animals 201, 202, 203, 20 mg/kg
  Individual plasma concentration: 14.36 ng/mL and 18.49 ng/mL
[1]; SD, rat, plasma, iv, 2 mg/kg, IV 2 mg/kg, 2 h, individual animals 101, 102, 103, read-out: Individual plasma concentration
  concentration at 2 h: 68.3 ng/mL
[1]; SD, rat, plasma, iv, 2 mg/kg, IV 2 mg/kg, 2 h, read-out: Mean plasma concentration
  concentration at 2 h: 72.7 ng/mL
[1]; SD, rat, plasma, iv, 2 mg/kg, IV 2 mg/kg, 4 h, individual animals 101, 102, 103, read-out: Individual plasma concentration
  concentration at 4 h: 41.1 ng/mL
[1]; SD, rat, plasma, iv, 2 mg/kg, IV 2 mg/kg, 4 h, read-out: Mean plasma concentration
  concentration at 4 h: 44.2 ng/mL
[1]; SD, rat, plasma, iv, 2 mg/kg, IV 2 mg/kg, 6 h, individual animals 101, 102, 103, read-out: Individual plasma concentration
  concentration at 6 h: 36.8 ng/mL
[1]; SD, rat, plasma, iv, 2 mg/kg, IV 2 mg/kg, 6 h, read-out: Mean plasma concentration
  concentration at 6 h: 37.6 ng/mL
[1]; SD, rat, plasma, iv, 2 mg/kg, IV 2 mg/kg, 8 h, individual animals 101, 102, 103, read-out: Individual plasma concentration
  concentration at 8 h: 20.4 ng/mL
[1]; SD, rat, plasma, iv, 2 mg/kg, read-out: AUC0‐t
  AUC: 773 ± 99.4 ng·h/mL
[1]; SD, rat, plasma, iv, 2 mg/kg, read-out: AUC0‐∞
  AUC: 793 ± 104 ng·h/mL
[1]; SD, rat, plasma, iv, 2 mg/kg, read-out: MRT0‐t
  MRT: 4.5 ± 0.28 h
[1]; SD, rat, plasma, iv, 2 mg/kg, read-out: MRT0‐∞
  MRT: 5.16 ± 0.36 h
